Test results taken from PMC3282105, “Antitumoral activity of allosteric inhibitors of protein kinase CK2” (2011).

Target: T1, CK2α (Homo sapiens, UniProt P68400)
T1 construct: gene CSNK2A1; human recombinant CK2α; rhCK2αΔC(1-335)
T1 sequence (P68400 1-335): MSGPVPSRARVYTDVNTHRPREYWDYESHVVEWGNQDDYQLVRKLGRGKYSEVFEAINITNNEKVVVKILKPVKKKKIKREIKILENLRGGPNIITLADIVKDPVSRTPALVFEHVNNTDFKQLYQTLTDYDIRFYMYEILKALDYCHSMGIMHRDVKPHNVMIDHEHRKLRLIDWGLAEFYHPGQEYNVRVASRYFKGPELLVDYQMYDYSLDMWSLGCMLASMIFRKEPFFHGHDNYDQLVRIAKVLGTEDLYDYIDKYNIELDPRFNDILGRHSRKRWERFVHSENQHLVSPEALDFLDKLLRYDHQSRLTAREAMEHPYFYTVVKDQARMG
Experiment: radiometric kinase assay dose-response, Lineweaver-Burk kinetics, mutant panel
Assay type: biochemical

IC50: ~400 nM
Compound: O=[N+]([O-])c1ccc2c(N=Nc3ccc4ccccc4c3O)c(O)cc(S(=O)(=O)O)c2c1 [compound 4, Eriochrome Black T]
